Results on 42 molecules are retold here after ChEMBL document CHEMBL1135777, “Three-dimensional quantitative structure-activity relationships of mazindol analogues at the dopamine transporter” (J Med Chem, 2002).

The target of the test is Sodium-dependent dopamine transporter (Rattus norvegicus, UniProt P23977). The test is described as follows: Ability to displace [3H]WIN-35428 from dopamine transporter in rat caudate putamen tissue. The format is tissue-based.
Sodium-dependent dopamine transporter, sequence (P23977 whole entry): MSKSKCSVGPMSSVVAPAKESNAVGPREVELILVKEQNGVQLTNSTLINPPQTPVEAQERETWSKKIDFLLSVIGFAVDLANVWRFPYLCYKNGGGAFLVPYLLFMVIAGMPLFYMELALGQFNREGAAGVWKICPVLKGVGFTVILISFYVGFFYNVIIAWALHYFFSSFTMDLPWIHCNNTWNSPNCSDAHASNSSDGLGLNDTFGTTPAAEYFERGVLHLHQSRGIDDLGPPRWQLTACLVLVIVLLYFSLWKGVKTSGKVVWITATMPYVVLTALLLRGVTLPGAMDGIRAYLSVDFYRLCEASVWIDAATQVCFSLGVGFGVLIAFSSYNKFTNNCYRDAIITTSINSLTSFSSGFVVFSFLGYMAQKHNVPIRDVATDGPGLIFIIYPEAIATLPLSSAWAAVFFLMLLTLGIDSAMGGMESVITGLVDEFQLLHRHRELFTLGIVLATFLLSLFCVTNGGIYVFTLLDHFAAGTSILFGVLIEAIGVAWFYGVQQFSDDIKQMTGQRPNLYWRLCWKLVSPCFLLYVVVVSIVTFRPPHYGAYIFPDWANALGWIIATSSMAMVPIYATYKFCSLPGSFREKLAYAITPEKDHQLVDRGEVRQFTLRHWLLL

On to `COc1ccc(C2(O)c3ccccc3C3=NCCCN32)cc1` (configuration not stated), for which the IC50 turned out to be 2.5 nM.

Consider `CC1(C2(O)c3ccccc3C3=NCCN32)CCCCC1` (configuration not stated), for which the IC50 was determined as 3500 nM.

Consider `OC1(c2ccc3ccccc3c2)c2ccc3ccccc3c2C2=NCCN21` (configuration not stated), for which the IC50 worked out at 38 nM.

The molecule `OC1(c2ccc(Cl)cc2)c2ccccc2C2=NCCCN21` (configuration not stated) had an IC50 of 1 nM.

For the molecule `OC1(c2ccccn2)c2ccccc2C2=NCCN21` (configuration not stated), the IC50 came out at 3700 nM.

The molecule `OC1CN=C2c3ccccc3C(O)(c3ccc(Cl)cc3)N2C1` (configuration not stated) had an IC50 of 10 nM.

`C=CCOc1ccc(C2(O)c3ccccc3C3=NCCCN32)cc1` (configuration not stated) came in with an IC50 of 72 nM.

For `OC1(c2ccc(Cl)cc2)c2ccc3ccccc3c2C2=NCCCN21` (configuration not stated), the IC50 stood at 37 nM.

With `CC1(C)COC(c2cccc(C(O)c3ccc(Cl)cc3)c2)=N1` (configuration not stated), the IC50 is 16000 nM.

Turning to `COC(=O)c1ccc(C2(O)c3ccccc3C3=NCCN32)cc1` (configuration not stated), the IC50 was 3300 nM.

The molecule `Oc1ccc(C2(O)c3ccccc3C3=NCCCN32)cc1` (configuration not stated) came in with an IC50 of 3.4 nM.

`OC1(C/C=C/c2ccccc2)c2ccccc2C2=NCCN21` (configuration not stated) came in with an IC50 of 9300 nM.

In turn, `OC(c1ccc(Cl)cc1)c1ccccc1C1=NCCN1` (stereo in doubt; 54) registered an IC50 of 2700 nM.

Take `OC1(c2ccncc2)c2ccccc2C2=NCCN21` (configuration not stated): the IC50 was determined as 63 nM.

`CC1(C)COC(c2ccc(C(=O)c3ccc(Cl)cc3)cc2)=N1`: the IC50 was found to be 1900 nM.

As for `O=C(c1ccc(Cl)cc1)c1ccccc1-c1ncc[nH]1`, the IC50 stood at 2800 nM.

Take `OC(c1ccc(Cl)cc1)c1ccccc1C1=NCCN1` (stereo in doubt; 53): the IC50 turned out to be 190 nM.

In turn, `OC1(c2ccc(COc3ccccc3)cc2)c2ccccc2C2=NCCN21` (configuration not stated) yielded an IC50 of 720 nM.

On to `OC(c1ccc(Cl)cc1)c1ccc(C2=NCCN2)cc1` (configuration not stated), for which the IC50 worked out at 1600 nM.

The molecule `Clc1ccc(Sc2ccccc2C2=NCCN2)cc1` yielded a half-inhibitory concentration (IC50) of 320 nM.

Regarding `CC(C)(C)C1(O)c2ccccc2C2=NCCN21` (configuration not stated), the IC50 is 9500 nM.

`COc1ccc(C2(O)c3ccccc3C3=NCCN32)cc1OC` (configuration not stated) had an IC50 of 6900 nM.

For the molecule `OC1(c2ccc(Cl)cc2)c2cccc3cccc(c23)C2=NCCCN21` (configuration not stated), the IC50 was determined as 42 nM.

Molecule `OC1(c2cccc(C(F)(F)F)c2)c2ccccc2C2=NCCN21` (configuration not stated) registered a concentration for half-maximal inhibition (IC50) of 230 nM.

For the molecule `CC1(C)COC(c2ccccc2C(=O)c2ccc(Cl)cc2)=N1`, the IC50 was 560 nM.

Molecule `OC1(c2cccnc2)c2ccccc2C2=NCCN21` (configuration not stated) yielded a 50% inhibitory concentration (IC50) of 640 nM.

In the case of `O=S(=O)(c1ccc(Cl)cc1)c1ccccc1C1=NCCN1`, the IC50 was determined as 6500 nM.

On to `OC1(c2ccc(CN3CCCCC3)cc2)c2ccccc2C2=NCCCN21` (configuration not stated), for which the IC50 worked out at 1200 nM.

Consider `OC1(C23C[C@H]4C[C@@H](C2)C[C@@H](C3)C4)c2ccccc2C2=NCCN21` (some centres not stated), for which the IC50 worked out at 4900 nM.

On to `[O-][S+](c1ccc(Cl)cc1)c1ccccc1C1=NCCN1` (configuration not stated), for which the IC50 came to 7300 nM.

In turn, `CN(C)Cc1ccc(C2(O)c3ccccc3C3=NCCN32)cc1` (configuration not stated) registered an IC50 of 2800 nM.

Take `OC1(c2ccc(C(F)(F)F)cc2)c2ccccc2C2=NCCN21` (configuration not stated): the IC50 is 290 nM.

Consider `COc1ccc(C2(O)c3ccccc3C3=NCCCN32)cc1OC` (configuration not stated), for which the IC50 turned out to be 87 nM.

`OC1(c2ccc3ccccc3c2)c2ccccc2C2=NCCN21` (configuration not stated) displayed an IC50 of 23 nM.

Molecule `Cc1ccc(C2(O)c3ccccc3C3=NCCN32)cc1` (configuration not stated) registered an IC50 of 93 nM.

Molecule `OC1(c2ccc(Cl)cc2)c2ccc3ccccc3c2C2=NCCN21` (configuration not stated) had an IC50 of 16 nM.

As for `Clc1ccc(Oc2ccccc2C2=NCCN2)cc1`, the IC50 worked out at 190 nM.

Regarding `Clc1ccc(Cc2ccccc2C2=NCCN2)cc1`, the IC50 came out at 4000 nM.

`O=C(c1ccc(Cl)cc1)c1cccc(C2=NCCN2)c1`: the IC50 worked out at 2200 nM.

For `Cn1ccnc1-c1ccccc1C(=O)c1ccc(Cl)cc1`, the IC50 was determined as 4300 nM.

The molecule `OC1(c2ccc(Cl)cc2)c2ccccc2C2=N[C@@H]3CCCC[C@H]3N21` (some centres not stated) had an IC50 of 34 nM.

Molecule `OC1(c2ccc(OCc3ccccc3)cc2)c2ccccc2C2=NCCCN21` (configuration not stated) had an IC50 of 100 nM.

The IC50 is the point on the concentration scale where inhibition reaches its midpoint. A high value points to lower potency.
